Laboratory results taken from ChEMBL document CHEMBL1156774, “Design of O-acetylserine sulfhydrylase inhibitors by mimicking nature” (J Med Chem, 2010).

Columns and labels:
[1] = molecular target: T1, Cysteine synthase (Haemophilus influenzae (strain ATCC 51907 / DSM 11121 / KW20 / Rd)) (UniProt P45040); test: (§1) Binding affinity to Haemophilus influenzae O-acetylserine sulfhydrylase expressed in Escherichia coli BL21 (DE3) by fluorescence emission spectra analysis
T1 sequence (whole entry): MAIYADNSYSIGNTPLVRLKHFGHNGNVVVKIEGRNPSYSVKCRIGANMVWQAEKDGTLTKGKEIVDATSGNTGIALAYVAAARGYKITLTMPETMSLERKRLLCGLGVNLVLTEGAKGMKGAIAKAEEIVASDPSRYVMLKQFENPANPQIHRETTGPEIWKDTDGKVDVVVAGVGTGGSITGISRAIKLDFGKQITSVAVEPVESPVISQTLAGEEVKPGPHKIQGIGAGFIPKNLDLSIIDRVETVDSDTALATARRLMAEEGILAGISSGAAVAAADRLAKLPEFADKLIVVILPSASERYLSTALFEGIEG

[2] = molecular target: T2, Cysteine synthase (Haemophilus influenzae (strain ATCC 51907 / DSM 11121 / KW20 / Rd), UniProt P45040); test: as §1
T2 sequence (P45040 whole entry): T1 sequence (whole entry)

| Substance | Kdiss [1] [µM] | Kd [2] [µM] |
| --- | --- | --- |
| H-MNDGI-OH | 1030 | 1020 |
| H-MNEGI-OH | 2270 | 2290 |
| H-MNLGI-OH | 570 | 575 |
| H-MNVPI-OH | 3330 | 3310 |
| H-MNYSI-OH | 60.8 | 60.3 |
